Data published in patent US20250268903A1, “RXFP1 AGONISTS” (BRISTOL-MYERS SQUIBB COMPANY, priority 2021, published 2025).

Target: T1, human RXFP1 (Homo sapiens, UniProt Q9HBX9)
T1 construct: expressed in transfected cells
T1 sequence (Q9HBX9 1-757): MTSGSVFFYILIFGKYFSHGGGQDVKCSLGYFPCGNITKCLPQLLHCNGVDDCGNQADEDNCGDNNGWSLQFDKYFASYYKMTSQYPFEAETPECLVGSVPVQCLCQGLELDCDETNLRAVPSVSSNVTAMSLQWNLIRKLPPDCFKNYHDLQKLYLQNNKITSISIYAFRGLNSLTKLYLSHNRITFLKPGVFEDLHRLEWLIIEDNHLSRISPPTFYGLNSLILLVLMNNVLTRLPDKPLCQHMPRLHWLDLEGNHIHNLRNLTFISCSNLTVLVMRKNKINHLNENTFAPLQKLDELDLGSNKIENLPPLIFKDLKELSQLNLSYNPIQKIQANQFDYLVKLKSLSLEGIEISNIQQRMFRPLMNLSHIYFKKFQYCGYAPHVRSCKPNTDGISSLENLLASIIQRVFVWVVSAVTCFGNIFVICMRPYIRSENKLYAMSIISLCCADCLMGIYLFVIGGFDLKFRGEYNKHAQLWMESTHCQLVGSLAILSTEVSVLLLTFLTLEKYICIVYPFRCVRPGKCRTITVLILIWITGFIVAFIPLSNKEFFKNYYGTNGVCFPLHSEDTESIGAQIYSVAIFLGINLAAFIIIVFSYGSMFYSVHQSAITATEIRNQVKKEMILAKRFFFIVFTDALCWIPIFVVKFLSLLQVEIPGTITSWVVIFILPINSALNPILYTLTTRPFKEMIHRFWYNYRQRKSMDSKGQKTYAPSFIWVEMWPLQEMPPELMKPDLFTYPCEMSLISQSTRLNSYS
Assay: hRXFP1 HEK293 cAMP assay (HTRF)
Assay type: cell-based
Conditions: HEK293 cells stably expressing human RXFP1, 30 min at room temperature
In short: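 hRXFP1-HEK293 stable line; HBSS + Ca/Mg, 20 mM HEPES, 0.05% BSA, 0.5 mM IBMX; cpd 0.010 nM–50 μM, 2% DMSO; 30 min RT; lysis, HTRF cAMP detection; 4-PL fit.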

| EC50 [nM] | Molecule |
| --- | --- |
| 107 | COCc1ncn(Cc2ccc(OC)c(C(=O)N[C@H]3[C@@H](C(=O)Nc4ccc(F)c(C(F)(F)F)c4)[C@H]4CC[C@@H]3/C4=C\C3CC3)c2)n1 [Example 296, (1R,2S,3R,4R,7Z)-7-(cyclopropyl-methylidene)-N-[4-fluoro-3-(trifluoromethyl)phenyl]-3-(2-methoxy-5-{[3-(methoxymethyl)-1H-1,2,4-triazol-1-yl]methyl}benzamido) bicyclo[2.2.1] heptane-2-carboxamide] |
| 3 | COc1ccc([C@@H]2CCC(CC(C)(C)O)C2)cc1C(=O)N[C@H]1[C@@H](C(=O)Nc2ccc(F)c(C(F)(F)F)c2)[C@H]2CC[C@@H]1/C2=C\C1CCCC1 (stereo partly drawn) [Example 362, (1R,2S,3R,4R,Z)-7-(cyclopentyl-methylene)-N-(4-fluoro-3-(trifluoromethyl)phenyl)-3-(5-((1R)-3-(2-hydroxy-2-methylpropyl)cyclopentyl)-2-methoxybenzamido) bicyclo[2.2.1] heptane-2-carboxamide] |
| 4010 | COc1ccc(C2CC2C(=O)N2CCC(O)CC2)cc1C(=O)N[C@H]1[C@@H](C(=O)Nc2ccc(F)c(C(F)(F)F)c2)[C@H]2CC[C@@H]1/C2=C\C(F)(F)F (single isomer, unassigned) [Example 326] |
| 4960 | COc1ccc(C2CCCC(N3CC(F)(F)C3)C2)cc1C(=O)N[C@H]1[C@@H](C(=O)Nc2ccc(F)c(C(F)(F)F)c2)[C@H]2CC[C@@H]1/C2=C\C(F)(F)F (stereo partly drawn) [Example 355, (1R,2S,3R,4R,7Z)-3-[5-13-(3,3-difluoroazetidin-1-yl)cyclohexyl]-2-methoxybenzamido 3-N-[4-fluoro-3-(trifluoromethyl)phenyl]-7-(2,2,2-trifluoroethylidene) bicyclo[2.2.1] heptane-2-carboxamide] |
| 2.8 | COc1c(F)cc(C(=O)N2CC3(CC(O)C3)C2)cc1C(=O)N[C@H]1[C@@H](C(=O)Nc2ccc(F)c(C(F)(F)F)c2)[C@H]2CC[C@@H]1/C2=C\C1CCCC1 [Example 371, (1R,2S,3R,4R,7Z)-7-(cyclopentyl-methylidene)-N-[4-fluoro-3-(trifluoromethyl)phenyl]-3-(3-fluoro-5-{6-hydroxy-2-azaspiro[3.3]heptane-2-carbonyl}-2-methoxybenzamido) bicyclo[2.2.1]heptane-2-carboxamide] |
| 3 | COc1c(F)cc(C(=O)NCC2(S(C)(=O)=O)CC2)cc1C(=O)N[C@H]1[C@@H](C(=O)N[C@H](C)C2(C)CC2)[C@H]2CC[C@@H]1/C2=C\C1CC1 [Example 369, N3-[(1R,2R,3S,4R,7Z)-7-(cyclopropyl-methylidene)-3-{[(1R)-1-(1-methylcyclopropyl)ethyl]carbamoyl}bicyclo[2.2.1]heptan-2-yl]-5-fluoro-N1-[(1-methanesulfonyl-cyclopropyl)methyl]-4-methoxybenzene-1,3-dicarboxamide] |
| 31.4 | COc1ccc(/C=C(\C)C(=O)N2CCC(O)CC2)cc1C(=O)N[C@H]1[C@@H](C(=O)Nc2ccc(F)c(C(F)(F)F)c2)[C@H]2CC[C@@H]1/C2=C\C(F)(F)F [Example 312, (1R,2S,3R,4R,7Z)-N-[4-fluoro-3-(trifluoromethyl)phenyl]-3-{5-[(1E)-3-(4-hydroxypiperidin-1-yl)-2-methyl-3-oxoprop-1-en-1-yl]-2-methoxybenzamido}-7-(2,2,2-trifluoroethylidene) bicyclo[2.2.1]heptane-2-carboxamide] |

Second part, the molecule before the results:

| Molecule | EC50 [nM] |
| --- | --- |
| COc1ccc(COC2CC=CC2)cc1C(=O)N[C@H]1[C@@H](C(=O)Nc2ccc(F)c(C(F)(F)F)c2)[C@H]2CC[C@@H]1/C2=C\C1CC1 [Example 285, (1R,2S,3R,4R,7Z)-3-{5-[(cyclopent-3-en-1-yloxy)methyl]-2-methoxybenzamido}-(cyclopropylmethyl-idene)-N-[4-fluoro-3-(trifluoromethyl)phenyl]bicyclo [2.2.1]heptane-2-carboxamide] | 226 |
| 4-(3-{[(2R,3S,7Z)- 3-{[4-fluoro-3- (trifluoromethyl)phe- nyl]carbamoyl}-7- (2,2,2- trifluoroethylidene)bi- cyclo[2.2.1]heptan- 2-yl]carbamoyl}-4- methoxyphenyl)cyclo- hexyl N- phenylcarbamate [Example 54] | 158 |
| COc1ccc(C(=O)N2CCC(S(C)(=O)=O)C2)cc1C(=O)N[C@H]1[C@@H](C(=O)Nc2ccc(F)c(C(F)(F)F)c2)[C@H]2CC[C@@H]1/C2=C\C1CC1 (stereo partly drawn) [Example 256] | 12.6 |
| COc1ccc(C2CCCC(NC(=O)C3CCOCC3)C2)cc1C(=O)N[C@@H]1C2CCC(/C2=C/C(F)(F)F)[C@@H]1C(=O)Nc1ccc(F)c(C(F)(F)F)c1 (single isomer, unassigned) [Example 51] | 2350 |
| COc1ccc(/C=C/C(=O)N[C@H]2C[C@H](O)C2)cc1C(=O)N[C@@H]1C2CCC(/C2=C/C2CC2)[C@@H]1C(=O)Nc1ccc(F)c(C(F)(F)F)c1 (stereo partly drawn) [Example 127, (2S,3R,7Z)-7-(cyclopropylmethyli-dene)-N-[4-fluoro-3-(trifluoromethyl)phe-nyl]-3-{2-methoxy-5-[(1E)-2-{[(1r,3r)-3-hydroxycyclobutyl]carbamoyl}eth-1-en-1-yl]benzamido}bicyclo [2.2.1]heptane-2-carboxamide] | 74 |
| COc1cc(CN2C(=O)CNC2=O)ccc1C(=O)N[C@@H]1C2CCC(/C2=C/C(F)(F)F)[C@@H]1C(=O)Nc1ccc(F)c(C(F)(F)F)c1 (stereo partly drawn) [Example 26, (2S,3R,7Z)-3-{4-[(2,5-dioxoimidazolidin-1-yl)methyl]-2-methoxybenzamido}-N-[4-fluoro-3-(trifluoromethyl)phe-nyl]-7-(2,2,2-trifluoroethylidene)bi-cyclo[2.2.1]heptane-2-carboxamide] | 1380 |
| COc1ccc(CN2C(=O)CNC2=O)cc1C(=O)N[C@@H]1C2CCC(/C2=C/C2CC2)[C@@H]1C(=O)Nc1ccc(F)c(C(F)(F)F)c1 (stereo partly drawn) [Example 22, (2S,3R,7Z)-7-(cyclopropylmethyli-dene)-3-{5-[(2,5-dioxoimidazolidin-1-yl)methyl]-2-methoxybenzamido}-N-[4-fluoro-3-(trifluoromethyl)phe-nyl]bicyclo[2.2.1]hept-ane-2-carboxamide] | 417 |
| (1R,4R,7Z)-7-(2- cyclobutylethylidene)- N-[4-fluoro-3- (trifluoromethyl) phenyl]-3-[5-(3- hydroxy-3- methylbutyl)-2- methoxybenzamido] bicyclo[2.2.1] heptane- 2-carboxamide [Example 265] | 66.2 |
| COc1ccc(C(=O)NC(C)(C)C)cc1C(=O)N[C@H]1[C@@H](C(=O)Nc2ccc(F)c(C(F)(F)F)c2)[C@H]2CC[C@@H]1/C2=C\C1CC1 [Example 236, N1-tert-butyl-N3-[(1R,2R,3S,4R,7Z)-7-(cyclopropyl-methylidene)-3-{[4-fluoro-3-(trifluoromethyl)phenyl]carbamoyl}bicyclo[2.2.1]heptan-2-yl]-4-methoxybenzene-1,3-dicarboxamide] | 234 |
| O=C(N[C@H]1[C@@H](C(=O)Nc2ccc(F)c(C(F)(F)F)c2)[C@H]2CC[C@@H]1/C2=C\C(F)(F)F)c1cc(C#CCO)ccc1OCCO [Example 106, (1R,2S,3R,4R,Z)—N-(4-fluoro-3-(trifluoromethyl)phenyl)-3-(2-(2-hydroxyethoxy)-5-(3-hydroxyprop-1-yn-1-yl)benzamido)-7-(2,2,2-trifluoroethylidene) bicyclo[2.2.1]heptane-2-carboxamide] | 377 |
| COc1ccc(CCC(=O)NC2CCC2)cc1C(=O)NC1C2CCC(/C2=C/C(F)(F)F)[C@@H]1C(=O)Nc1ccc(F)c(C(F)(F)F)c1 (stereo partly drawn) [Example 139, (2S,3R,7Z)-3-{5-[2-(cyclobutylcarbamoyl)ethyl]-2-methoxybenzamido}-N-[4-fluoro-3-(trifluoromethyl)phe-nyl]-7-(2,2,2-trifluoroethylidene)bi-cyclo[2.2.1]heptane-2-carboxamide] | 694 |
| COc1ccc(/C=C/C(=O)N2CCC(O)CC2)cc1C(=O)N[C@@H]1C2CCC(/C2=C/C(F)(F)F)[C@@H]1C(=O)Nc1ccc(F)c(C(F)(F)F)c1 (stereo partly drawn) [Example 125, (2S,3R,7Z)-N-[4-fluoro-3-(trifluoromethyl)phe-nyl]-3-{5-[(1E)-3-(4-hydroxypiperidin-1-yl)-3-oxoprop-1-en-1-yl]-2-methoxybenzamido}-7-(2,2,2-trifluoroethylidene)bi-cyclo[2.2.1]heptane-2-carboxamide] | 13 |
| COc1ccc(CCC2CCOCC2)cc1C(=O)NC1C2CCC(/C2=C/C(F)(F)F)[C@@H]1C(=O)Nc1ccc(F)c(C(F)(F)F)c1 (stereo partly drawn) [Example 180, (7Z)-N-[4-fluoro-3-(trifluoromethyl)phe-nyl]-3-{2-methoxy-5-[2-(oxan-4-yl)ethyl]benzamido}-7-(2,2,2-trifluoroethylidene)bi-cyclo[2.2.1]heptane-2-carboxamide] | 168 |
| COc1ccc(/C=C/CCO)cc1C(=O)N[C@@H]1C2CCC(C2=C(C)C)[C@@H]1C(=O)Nc1ccc(F)c(C(F)(F)F)c1 (stereo partly drawn) [Example 32] | 740 |
